Assay results published in PubChem BioAssay AID328 (DTP/NCI, 2004).
“And” between values parts separate entries of the source, which are not always exact repeats. Equal entries are not always repeated. Inconclusive results and toxic doses are left out.

System: BDF1 mice, P388 leukemia ip, median survival T/C
Assay: NCI In Vivo Anticancer Drug Screen. Data for tumor model P388 Leukemia (intraperitoneal) in B6D2F1 (BDF1) mice
Conditions: endpoint: median survival time, higher = longer survival
Summary of the method: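 Survival ratio, drug arm over vehicle arm, in mice with a transplanted tumour.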

[1] = dose: 100.0 mg/kg/injection, schedule: Q01DX009 (ip), vehicle: saline with Tween-80
[2] = dose: 200.0 mg/kg/injection, schedule: Q01DX009 (ip), vehicle: saline with Tween-80
[3] = dose: 50.0 mg/kg/injection, schedule: Q01DX009 (ip), vehicle: saline with Tween-80
[4] = dose: 100.0 mg/kg/injection, schedule: Q04DX003 (ip), vehicle: saline with Tween-80
[5] = dose: 200.0 mg/kg/injection, schedule: Q04DX003 (ip), vehicle: saline with Tween-80
[6] = dose: 400.0 mg/kg/injection, schedule: Q04DX003 (ip), vehicle: saline with Tween-80
[7] = dose: 100.0 mg/kg/injection, schedule: Q01DX009 (ip), vehicle: water
[8] = dose: 200.0 mg/kg/injection, schedule: Q01DX009 (ip), vehicle: water
[9] = dose: 400.0 mg/kg/injection, schedule: Q01DX009 (ip), vehicle: water
[10] = dose: 25.0 mg/kg/injection, schedule: Q01DX009 (ip), vehicle: saline with Tween-80

SMILES: C=C1C(=O)OC2C1C(OC(=O)/C(C)=C/CO)C/C(C)=C/CCC1(CO)OC21 (stereo unspecified)
- T/C (dose: 0.5 mg/kg/injection, schedule: Q01DX009 (ip), vehicle: Klucel (hydroxypropylcellulose) (HPC)): 97 % of control
- T/C (dose: 1.0 mg/kg/injection, schedule: Q01DX009 (ip), vehicle: Klucel (hydroxypropylcellulose) (HPC)): 94 % of control
- T/C (dose: 2.0 mg/kg/injection, schedule: Q01DX009 (ip), vehicle: Klucel (hydroxypropylcellulose) (HPC)): 101 % of control
- T/C (dose: 4.0 mg/kg/injection, schedule: Q01DX009 (ip), vehicle: Klucel (hydroxypropylcellulose) (HPC)): 100 % of control

SMILES: O=C(O)c1cc(-c2cccc3ccccc23)nc2cc3ccccc3cc12
- T/C [1]: 99 % of control
- T/C [2]: 108 % of control

SMILES: COc1cc(NCCN2CCN(CCNc3cc(OC)cc4cccnc34)CC2)c2ncccc2c1
- T/C [3]: 113 % of control
- T/C [1]: 110 % of control
- T/C [2]: 94 % of control

SMILES: COc1ccc(-c2c(C)c(C)nc(Cl)c2C#N)c(OCc2ccccc2)c1OC
- T/C (dose: 0.1 mg/kg/injection, schedule: Q01DX009 (ip), vehicle: Klucel (hydroxypropylcellulose) (HPC)): 95 % of control

SMILES: O=C(O)CCc1c[nH]c2ccc(N(CCCl)CCCl)cc12
- T/C (dose: 0.04 mg/kg/injection, schedule: Q04DX003 (ip), vehicle: saline with Tween-80): 109 % of control
- T/C (dose: 0.08 mg/kg/injection, schedule: Q04DX003 (ip), vehicle: saline with Tween-80): 109 % of control
- T/C (dose: 0.5 mg/kg/injection, schedule: Q04DX003 (ip), vehicle: saline with Tween-80): 158 % of control
- T/C (dose: 0.5 mg/kg/injection, schedule: Q04DX003 (ip), vehicle: saline): 231 % of control
- T/C (dose: 0.75 mg/kg/injection, schedule: Q04DX003 (ip), vehicle: saline with Tween-80): 154 % of control
- T/C (dose: 1.0 mg/kg/injection, schedule: Q04DX003 (ip), vehicle: saline): 90 % of control

SMILES: Cc1ccc2c(c1)=N/C(=N\c1nc(O)c(O)[nH]1)N=2
- T/C (dose: 60.0 mg/kg/injection, schedule: Q01DX009 (ip), vehicle: Klucel (hydroxypropylcellulose) (HPC)): 98 % of control
- T/C (dose: 66.0 mg/kg/injection, schedule: Q01DX009 (ip), vehicle: Klucel (hydroxypropylcellulose) (HPC)): 106 % of control
- T/C (dose: 100.0 mg/kg/injection, schedule: Q01DX009 (ip), vehicle: Klucel (hydroxypropylcellulose) (HPC)): 103 % of control and 118 % of control
- T/C (dose: 100.0 mg/kg/injection, schedule: Q04DX003 (ip), vehicle: Klucel (hydroxypropylcellulose) (HPC)): 104 % of control
- T/C (dose: 140.0 mg/kg/injection, schedule: Q01DX009 (ip), vehicle: Klucel (hydroxypropylcellulose) (HPC)): 97 % of control
- T/C (dose: 150.0 mg/kg/injection, schedule: Q01DX009 (ip), vehicle: Klucel (hydroxypropylcellulose) (HPC)): 168 % of control
- T/C (dose: 200.0 mg/kg/injection, schedule: Q01DX009 (ip), vehicle: Klucel (hydroxypropylcellulose) (HPC)): 116 % of control
- T/C (dose: 200.0 mg/kg/injection, schedule: Q04DX003 (ip), vehicle: Klucel (hydroxypropylcellulose) (HPC)): 100 % of control
- T/C (dose: 400.0 mg/kg/injection, schedule: Q01DX009 (ip), vehicle: Klucel (hydroxypropylcellulose) (HPC)): 111 % of control
- T/C (dose: 400.0 mg/kg/injection, schedule: Q04DX003 (ip), vehicle: Klucel (hydroxypropylcellulose) (HPC)): 95 % of control

SMILES: O=C(O)CCc1nc(-c2ccccc2)c(-c2ccccc2)o1
- T/C [3]: 100 % of control
- T/C [1]: 104 % of control
- T/C [2]: 119 % of control

SMILES: CC(=N\O)/C(=N\O)C(=O)c1ccccc1
- T/C (dose: 100.0 mg/kg/injection, schedule: Q01DX009 (ip), vehicle: other): 91 % of control
- T/C [4]: 95 % of control
- T/C [5]: 95 % of control
- T/C [6]: 90 % of control

SMILES: CC(C)=C(CO)CCC(C)C
- T/C (dose: 50.0 mg/kg/injection, schedule: Q04DX003 (ip), vehicle: saline with Tween-80): 109 % of control
- T/C [4]: 122 % of control
- T/C [5]: 118 % of control

SMILES: O=C(Cn1ccc(O)cc1=O)N1CCOCC1
- T/C [7]: 105 % of control
- T/C [8]: 104 % of control
- T/C [9]: 104 % of control

SMILES: O=c1oc2ccccc2c2c1C(c1ccc3c(c1)OCO3)C=C(c1ccc3c(c1)OCO3)O2 (stereo unspecified)
- T/C (dose: 12.5 mg/kg/injection, schedule: Q01DX009 (ip), vehicle: water): 97 % of control
- T/C (dose: 25.0 mg/kg/injection, schedule: Q01DX009 (ip), vehicle: water): 104 % of control
- T/C (dose: 25.0 mg/kg/injection, schedule: Q04DX003 (ip), vehicle: water): 113 % of control
- T/C (dose: 50.0 mg/kg/injection, schedule: Q01DX009 (ip), vehicle: water): 101 % of control and 104 % of control
- T/C (dose: 50.0 mg/kg/injection, schedule: Q04DX003 (ip), vehicle: water): 116 % of control
- T/C [7]: 95 % of control
- T/C (dose: 100.0 mg/kg/injection, schedule: Q04DX003 (ip), vehicle: water): 103 % of control
- T/C [8]: 108 % of control and 123 % of control
- T/C (dose: 200.0 mg/kg/injection, schedule: Q04DX003 (ip), vehicle: water): 102 % of control and 111 % of control
- T/C (dose: 300.0 mg/kg/injection, schedule: Q01DX009 (ip), vehicle: water): 101 % of control
- T/C (dose: 300.0 mg/kg/injection, schedule: Q04DX003 (ip), vehicle: water): 102 % of control
- T/C [9]: 101 % of control
- T/C (dose: 400.0 mg/kg/injection, schedule: Q04DX003 (ip), vehicle: water): 119 % of control and 120 % of control
- T/C (dose: 500.0 mg/kg/injection, schedule: Q01DX009 (ip), vehicle: water): 118 % of control

SMILES: Cc1cc(N(C)C)c2ccc3cc4ccccc4cc3c2n1
- T/C [10]: 95 % of control
- T/C [3]: 95 % of control and 114 % of control
- T/C [1]: 92 % of control and 121 % of control

SMILES: NC(=S)c1cn(C2OC(CO)C(O)C2O)c2ncnc(N)c12 (stereo unspecified)
- T/C (dose: 3.3 mg/kg/injection, schedule: Q01DX009 (ip), vehicle: saline with Tween-80): 166 % of control
- T/C (dose: 5.0 mg/kg/injection, schedule: Q01DX009 (ip), vehicle: saline with Tween-80): 100 % of control

SMILES: COC12C(COC(=O)NCCO)C3=C(C(=O)C(C)=C(N)C3=O)N1CC1NC12 (stereo unspecified)
- T/C (dose: 6.25 mg/kg/injection, schedule: Q01DX009 (ip), vehicle: saline): 209 % of control
- T/C (dose: 12.5 mg/kg/injection, schedule: Q01DX009 (ip), vehicle: saline): 228 % of control and 230 % of control
- T/C (dose: 25.0 mg/kg/injection, schedule: Q01DX009 (ip), vehicle: saline): 231 % of control and 254 % of control

SMILES: CC1(C)N=C(N)N=C(N)N1c1ccc(CCc2ccccc2)cc1
- T/C (dose: 22.0 mg/kg/injection, schedule: Q01DX009 (ip), vehicle: saline with Tween-80): 104 % of control
- T/C (dose: 33.0 mg/kg/injection, schedule: Q01DX009 (ip), vehicle: saline with Tween-80): 100 % of control
- T/C [3]: 112 % of control

SMILES: Cc1cc2c(c3ncccc13)OCN(Cc1ccc(Cl)c(Cl)c1)C2
- T/C (dose: 12.5 mg/kg/injection, schedule: Q01DX009 (ip), vehicle: saline with Tween-80): 113 % of control
- T/C [10]: 108 % of control
- T/C [3]: 104 % of control

SMILES: OB(O)C1=CC(c2ccccc2)(c2ccccc2)N=C1
- T/C (dose: 25.0 mg/kg/injection, schedule: Q01DX001 (ip), vehicle: saline sonified): 100 % of control
- T/C (dose: 50.0 mg/kg/injection, schedule: Q01DX001 (ip), vehicle: saline sonified): 100 % of control
- T/C (dose: 100.0 mg/kg/injection, schedule: Q01DX001 (ip), vehicle: saline sonified): 104 % of control

SMILES: CCCCCCC(=O)CCCCCCCCCCCCC(=O)OC
- T/C (dose: 1.56 mg/kg/injection, schedule: Q01DX009 (ip), vehicle: saline with Tween-80): 90 % of control
- T/C (dose: 3.13 mg/kg/injection, schedule: Q01DX009 (ip), vehicle: saline with Tween-80): 100 % of control
- T/C (dose: 6.25 mg/kg/injection, schedule: Q01DX009 (ip), vehicle: saline with Tween-80): 95 % of control

SMILES: CCc1ccc(NC(=O)c2ccccc2C(=O)O)cc1
- T/C [4]: 122 % of control
- T/C [5]: 104 % of control
- T/C [6]: 109 % of control

SMILES: Clc1cc(N2CC2)nc(N2CC2)n1
- T/C (dose: 0.11 mg/kg/injection, schedule: Q01DX009 (ip), vehicle: saline): 90 % of control
- T/C (dose: 0.17 mg/kg/injection, schedule: Q01DX009 (ip), vehicle: saline): 95 % of control
- T/C (dose: 0.27 mg/kg/injection, schedule: Q01DX009 (ip), vehicle: saline): 275 % of control
- T/C (dose: 0.4 mg/kg/injection, schedule: Q01DX009 (ip), vehicle: saline): 295 % of control
- T/C (dose: 0.62 mg/kg/injection, schedule: Q01DX009 (ip), vehicle: saline): 157 % of control
- T/C (dose: 1.25 mg/kg/injection, schedule: Q01DX009 (ip), vehicle: saline): 230 % of control
- T/C (dose: 1.56 mg/kg/injection, schedule: Q01DX001 (ip), vehicle: saline): 109 % of control
- T/C (dose: 3.12 mg/kg/injection, schedule: Q04DX003 (ip), vehicle: saline): 104 % of control
- T/C (dose: 6.5 mg/kg/injection, schedule: Q01DX001 (ip), vehicle: saline): 163 % of control
- T/C (dose: 6.5 mg/kg/injection, schedule: Q04DX003 (ip), vehicle: saline): 168 % of control
